Results: patent US10597388B2, “Pyridazinone herbicides” (FMC CORPORATION, priority 2014, dated 2020)

Legend:
Assay in all cases: Test E greenhouse herbicide test, pre- and postemergence
Assay type in all cases: in vivo
[1] = tested on: velvetleaf (Abutilon theophrasti); conditions: Preemergence
How it was run: (§1)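 Scores (0–100, visual, vs controls) reflect greenhouse growth of 14 to 21 d after treatment. Application was pre-emergence to silt loam or post-emergence at the 1- to 4-leaf stage.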

[2] = tested on: barnyardgrass (Echinochloa crus-galli)
How it was run: as §1

[3] = tested on: crabgrass, large (large crabgrass, Digitaria sanguinalis); conditions: Preemergence
How it was run: as §1

[4] = tested on: crabgrass, Brazilian (Brazilian crabgrass, Digitaria horizontalis)
How it was run: as §1

[5] = tested on: waterhemp (common waterhemp, Amaranthus rudis)
How it was run: as §1

[6] = tested on: lambsquarters (Chenopodium album); conditions: Preemergence
How it was run: as §1

[7] = tested on: ragweed (common ragweed, Ambrosia elatior)
How it was run: as §1

[8] = tested on: johnsongrass (Sorghum halepense); conditions: Preemergence
How it was run: as §1

[9] = tested on: kochia (Kochia scoparia)
How it was run: as §1

[10] = tested on: dayflower (Virginia (VA) dayflower, Commelina virginica)
How it was run: as §1

[11] = tested on: foxtail, green (green foxtail, Setaria viridis); conditions: Preemergence
How it was run: as §1

[12] = tested on: sandbur (southem sandbur, Cenchrus echinatus)
How it was run: as §1

[13] = tested on: foxtail, giant (giant foxtail, Setaria faberii); conditions: Preemergence
How it was run: as §1

[14] = tested on: nutsedge, yellow (yellow nutsedge, Cyperus esculentus); conditions: Preemergence
How it was run: as §1

[15] = tested on: Italian ryegrass (Lolium multiflorum)
How it was run: as §1

[16] = tested on: panicum, fall (fall panicum, Panicum dichotomiflorum)
How it was run: as §1

[17] = tested on: beggarticks (hairy beggarticks, Bidens pilosa)
How it was run: as §1

[18] = 125 g ai/ha, scale 0 to 100 (0 no effect, 100 complete control)
[19] = 16 g ai/ha, scale 0 to 100, 0 no effect, 100 complete control
[20] = 31 g ai/ha, scale 0 to 100, 0 no effect, 100 complete control
[21] = 62 g ai/ha, Postemergence, scale 0 to 100 (0 no effect, 100 complete control)
[22] = 62 g ai/ha, Preemergence, scale 0 to 100 (0 no effect, 100 complete control)
[23] = 125 g ai/ha, Postemergence, scale 0 to 100 (0 no effect, 100 complete control)
[24] = 125 g ai/ha, Preemergence, scale 0 to 100 (0 no effect, 100 complete control)
[25] = Postemergence, 16 g ai/ha, visual, scale 0 no effect to 100 complete control
[26] = Postemergence, 31 g ai/ha, visual, scale 0 no effect to 100 complete control
[27] = Preemergence, 16 g ai/ha, scale 0 to 100, 0 no effect, 100 complete control
[28] = Preemergence, 31 g ai/ha, scale 0 to 100, 0 no effect, 100 complete control
[29] = 62 g ai/ha, scale 0 to 100 (0 no effect, 100 complete control)
[30] = 250 g ai/ha, visual, scale 0 no effect to 100 complete control
[31] = 250 g ai/ha, Postemergence, scale 0 to 100 (0 no effect, 100 complete control)
[32] = Preemergence, 250 g ai/ha, visual, scale 0 no effect to 100 complete control

CCC(=O)Oc1c(C)nn(C)c(=O)c1-c1c(C)sc2ccc(Cl)cc12 [Compound 109]
Plant response rating, Velvetleaf [1, 18]: 65
Plant response rating, Velvetleaf [1, 19]: 0
Plant response rating, Velvetleaf [1, 20]: 0
Plant response rating, Barnyardgrass [2, 21]: 30
Plant response rating, Barnyardgrass [2, 22]: 10
Plant response rating, Barnyardgrass [2, 23]: 40
Plant response rating, Barnyardgrass [2, 24]: 25
Plant response rating, Barnyardgrass [2, 25]: 25
Plant response rating, Barnyardgrass [2, 26]: 30
Plant response rating, Barnyardgrass [2, 27]: 0
Plant response rating, Barnyardgrass [2, 28]: 0
Plant response rating, Crabgrass, Large [3, 29]: 40
Plant response rating, Crabgrass, Large [3, 18]: 35
Plant response rating, Crabgrass, Large [3, 19]: 0
Plant response rating, Crabgrass, Large [3, 20]: 0
Plant response rating, Crabgrass, Brazil [4, 21]: 30
Plant response rating, Crabgrass, Brazil [4, 22]: 40
Plant response rating, Crabgrass, Brazil [4, 23]: 50
Plant response rating, Crabgrass, Brazil [4, 24]: 70
Plant response rating, Crabgrass, Brazil [4, 25]: 10
Plant response rating, Crabgrass, Brazil [4, 26]: 40
Plant response rating, Crabgrass, Brazil [4, 27]: 70
Plant response rating, Crabgrass, Brazil [4, 28]: 60
Plant response rating, Waterhemp [5, 23]: 90
Plant response rating, Waterhemp [5, 24]: 98
Plant response rating, Waterhemp [5, 25]: 60
Plant response rating, Waterhemp [5, 26]: 75
Plant response rating, Waterhemp [5, 27]: 0
Plant response rating, Waterhemp [5, 28]: 0
Plant response rating, Lambsquarters [6, 18]: 98
Plant response rating, Lambsquarters [6, 19]: 0
Plant response rating, Lambsquarters [6, 20]: 95
Plant response rating, Ragweed [7, 21]: 90
Plant response rating, Ragweed [7, 23]: 95
Plant response rating, Ragweed [7, 24]: 100
Plant response rating, Ragweed [7, 25]: 80
Plant response rating, Ragweed [7, 26]: 85
Plant response rating, Ragweed [7, 27]: 0
Plant response rating, Ragweed [7, 28]: 5
Plant response rating, Johnsongrass [8, 18]: 40
Plant response rating, Johnsongrass [8, 19]: 0
Plant response rating, Johnsongrass [8, 20]: 0
Plant response rating, Kochia [9, 21]: 95
Plant response rating, Kochia [9, 23]: 100
Plant response rating, Kochia [9, 24]: 100
Plant response rating, Kochia [9, 25]: 80
Plant response rating, Kochia [9, 26]: 95
Plant response rating, Kochia [9, 27]: 0
Plant response rating, Kochia [9, 28]: 10
Plant response rating, Dayflower, VA [10, 21]: 50
Plant response rating, Dayflower, VA [10, 22]: 25
Plant response rating, Dayflower, VA [10, 23]: 60
Plant response rating, Dayflower, VA [10, 24]: 25
Plant response rating, Dayflower, VA [10, 25]: 30
Plant response rating, Dayflower, VA [10, 26]: 30
Plant response rating, Dayflower, VA [10, 27]: 0
Plant response rating, Dayflower, VA [10, 28]: 25
Plant response rating, Foxtail, Green [11, 29]: 40
Plant response rating, Foxtail, Green [11, 18]: 60
Plant response rating, Foxtail, Green [11, 19]: 0
Plant response rating, Foxtail, Green [11, 20]: 0
Plant response rating, Sandbur [12, 23]: 70
Plant response rating, Sandbur [12, 24]: 75
Plant response rating, Sandbur [12, 25]: 60
Plant response rating, Sandbur [12, 26]: 40
Plant response rating, Sandbur [12, 27]: 0
Plant response rating, Sandbur [12, 28]: 40
Plant response rating, Foxtail, Giant [13, 29]: 40
Plant response rating, Foxtail, Giant [13, 18]: 80
Plant response rating, Foxtail, Giant [13, 19]: 0
Plant response rating, Foxtail, Giant [13, 20]: 35
Plant response rating, Nutsedge, Yellow [14, 18]: 40
Plant response rating, Nutsedge, Yellow [14, 19]: 0
Plant response rating, Nutsedge, Yellow [14, 20]: 0
Plant response rating, Ryegrass, Italian [15, 21]: 90
Plant response rating, Ryegrass, Italian [15, 23]: 85
Plant response rating, Ryegrass, Italian [15, 24]: 98
Plant response rating, Ryegrass, Italian [15, 25]: 50
Plant response rating, Ryegrass, Italian [15, 26]: 75
Plant response rating, Ryegrass, Italian [15, 27]: 60
Plant response rating, Ryegrass, Italian [15, 28]: 75
Plant response rating, Panicum, Fall [16, 21]: 65
Plant response rating, Panicum, Fall [16, 23]: 80
Plant response rating, Panicum, Fall [16, 24]: 95
Plant response rating, Panicum, Fall [16, 25]: 50
Plant response rating, Panicum, Fall [16, 26]: 60
Plant response rating, Panicum, Fall [16, 27]: 75
Plant response rating, Panicum, Fall [16, 28]: 80
Plant response rating, Beggarticks [17, 21]: 85
Plant response rating, Beggarticks [17, 22]: 100
Plant response rating, Beggarticks [17, 23]: 100
Plant response rating, Beggarticks [17, 24]: 100
Plant response rating, Beggarticks [17, 25]: 80
Plant response rating, Beggarticks [17, 26]: 90
Plant response rating, Beggarticks [17, 27]: 20
Plant response rating, Beggarticks [17, 28]: 75

CC(=O)Oc1c(C)nn(C)c(=O)c1-c1c(C)cc(C)c2ccccc12 [Compound 153]
Plant response rating, Velvetleaf [1, 18]: 90
Plant response rating, Velvetleaf [1, 20]: 85
Plant response rating, Velvetleaf [1, 30]: 100
Plant response rating, Barnyardgrass [2, 21]: 40
Plant response rating, Barnyardgrass [2, 22]: 50
Plant response rating, Barnyardgrass [2, 23]: 50
Plant response rating, Barnyardgrass [2, 24]: 70
Plant response rating, Barnyardgrass [2, 31]: 80
Plant response rating, Barnyardgrass [2, 26]: 25
Plant response rating, Barnyardgrass [2, 28]: 20
Plant response rating, Barnyardgrass [2, 32]: 90
Plant response rating, Crabgrass, Large [3, 29]: 70
Plant response rating, Crabgrass, Large [3, 18]: 75
Plant response rating, Crabgrass, Large [3, 20]: 70
Plant response rating, Crabgrass, Large [3, 30]: 80
Plant response rating, Crabgrass, Brazil [4, 21]: 30
Plant response rating, Crabgrass, Brazil [4, 22]: 70
Plant response rating, Crabgrass, Brazil [4, 23]: 40
Plant response rating, Crabgrass, Brazil [4, 24]: 100
Plant response rating, Crabgrass, Brazil [4, 31]: 50
Plant response rating, Crabgrass, Brazil [4, 26]: 20
Plant response rating, Crabgrass, Brazil [4, 28]: 90
Plant response rating, Crabgrass, Brazil [4, 32]: 100
Plant response rating, Waterhemp [5, 23]: 50
Plant response rating, Waterhemp [5, 24]: 85
Plant response rating, Waterhemp [5, 31]: 75
Plant response rating, Waterhemp [5, 26]: 50
Plant response rating, Waterhemp [5, 28]: 60
Plant response rating, Waterhemp [5, 32]: 100
Plant response rating, Lambsquarters [6, 18]: 100
Plant response rating, Lambsquarters [6, 20]: 100
Plant response rating, Lambsquarters [6, 30]: 100
Plant response rating, Ragweed [7, 21]: 70
Plant response rating, Ragweed [7, 23]: 80
Plant response rating, Ragweed [7, 24]: 95
Plant response rating, Ragweed [7, 31]: 90
Plant response rating, Ragweed [7, 26]: 75
Plant response rating, Ragweed [7, 28]: 100
Plant response rating, Ragweed [7, 32]: 100
Plant response rating, Johnsongrass [8, 20]: 0
Plant response rating, Johnsongrass [8, 30]: 60
Plant response rating, Kochia [9, 21]: 50
Plant response rating, Kochia [9, 23]: 55
Plant response rating, Kochia [9, 24]: 50
Plant response rating, Kochia [9, 31]: 70
Plant response rating, Kochia [9, 26]: 50
Plant response rating, Kochia [9, 28]: 40
Plant response rating, Kochia [9, 32]: 90
Plant response rating, Dayflower, VA [10, 21]: 90
Plant response rating, Dayflower, VA [10, 22]: 85
Plant response rating, Dayflower, VA [10, 23]: 90
Plant response rating, Dayflower, VA [10, 24]: 90
Plant response rating, Dayflower, VA [10, 31]: 95
Plant response rating, Dayflower, VA [10, 26]: 85
Plant response rating, Dayflower, VA [10, 28]: 80
Plant response rating, Dayflower, VA [10, 32]: 90
Plant response rating, Foxtail, Green [11, 29]: 75
Plant response rating, Foxtail, Green [11, 18]: 90
Plant response rating, Foxtail, Green [11, 20]: 50
Plant response rating, Foxtail, Green [11, 30]: 95
Plant response rating, Sandbur [12, 23]: 60
Plant response rating, Sandbur [12, 24]: 85
Plant response rating, Sandbur [12, 31]: 70
Plant response rating, Sandbur [12, 26]: 50
Plant response rating, Sandbur [12, 28]: 80
Plant response rating, Sandbur [12, 32]: 90
Plant response rating, Foxtail, Giant [13, 29]: 95
Plant response rating, Foxtail, Giant [13, 18]: 95
Plant response rating, Foxtail, Giant [13, 20]: 75
Plant response rating, Foxtail, Giant [13, 30]: 100
Plant response rating, Nutsedge, Yellow [14, 18]: 80
Plant response rating, Nutsedge, Yellow [14, 20]: 50
Plant response rating, Nutsedge, Yellow [14, 30]: 95
Plant response rating, Ryegrass, Italian [15, 21]: 90
Plant response rating, Ryegrass, Italian [15, 23]: 90
Plant response rating, Ryegrass, Italian [15, 24]: 100
Plant response rating, Ryegrass, Italian [15, 31]: 95
Plant response rating, Ryegrass, Italian [15, 26]: 85
Plant response rating, Ryegrass, Italian [15, 28]: 100
Plant response rating, Ryegrass, Italian [15, 32]: 100
Plant response rating, Panicum, Fall [16, 21]: 90
Plant response rating, Panicum, Fall [16, 23]: 90
Plant response rating, Panicum, Fall [16, 24]: 100
Plant response rating, Panicum, Fall [16, 31]: 90
Plant response rating, Panicum, Fall [16, 26]: 85
Plant response rating, Panicum, Fall [16, 28]: 100
Plant response rating, Panicum, Fall [16, 32]: 100
Plant response rating, Beggarticks [17, 21]: 100
Plant response rating, Beggarticks [17, 22]: 100
Plant response rating, Beggarticks [17, 23]: 100
Plant response rating, Beggarticks [17, 24]: 100
Plant response rating, Beggarticks [17, 31]: 100
Plant response rating, Beggarticks [17, 26]: 100
Plant response rating, Beggarticks [17, 28]: 100
Plant response rating, Beggarticks [17, 32]: 100
